Source: patent publication US6025491A, “Water soluble onium salt of taxo-diterpenoid” (The Scripps Research Institute, priority 1998, dated 2000)
Structures can show the parent of a compound that is named as a salt. Where two headings read alike, the source gives them in different places.

Tests used:
[1] = kinetics of taxol release from taxol-2'-MPT in aqueous solutions; type: physicochemical; conditions: 25° C.; for taxol release: over 11 minutes
Protocol: (§1) Under these conditions 20% of total is recovered. More particularly, Taxol-2'-MPT (2) was dissolved in the aqueous system with the aid of sonication for five minutes. Aliquots were then removed at the times shown and partitioned into methylene chloride to quench the reaction. Samples were then analyzed using a Waters Maxima HPLC instrument equipped with an autoinjector (3.9×300 mm C18 column equipped with a precolumn. The flow rate was 1.5 mL/minute. The eluent gradient A-B extended over 30 minutes. "A" was 80% 80 mM ammonium acetate, pH 6.0. "B" was 100% methanol. An ultraviolet diode array detector was employed. The ratio of compound 2 (Rf 16.2 min.) to taxol (compound 1, Rf 16.8 min.) remaining was determined from the relative areas of the peaks after normalization with previously determined calibration curves.

metastatic melanoma [2] = system: metastatic melanoma
Protocol: (§4) More particularly, cells were plated on 96 well plates with the following controls: no cells and toxic control (1×10^-3 M SDS). The drug was added to the first set of wells and diluted via standard dilution method from the stock. Plates were incubated at 37° C., 5% CO2 in sterile air in an humidified incubator for 72 hours. An aliquot of 50 μL of a solution of 2,3-bis(methoxy-4-nitro-5-sulfophenyl)-5-[(phenylamino) carbonyl]-1H-tetrazolium hydroxide (XTT), 1 mg mL^-1, in phosphate buffered saline (PBS, 100 mM) was added to the wells. In the presence of viable cells, this colorless clear media is enzymatically altered to give a pink coloration. The plates were read at 450 nm using a plate reader. Percentage cytotoxicity was calculated using the formula: % C=1-(OD toxin)(OD growth control)^-1 (100).

immunoglobulins = experiment: displacement of MPT group by immunoglobulins; type: in vitro ADME
Excerpt: (§2) However, the release of taxol from taxol-2'-MPT can also be catalyzed by serum protein and by proteins having nucleophilic groups. […] Dialysis of the protein:taxol intermediate indicates a dissociation period of hours or days. Displacement of the MPT group by serum proteins seems to be specific for such serum proteins. […] The precise nature of the bonding between the protein and taxol has not been characterized. Scheme 2 illustrates alternative pathways for MPT release.

[3] = system: A549 non-small cell lung adenocarcinoma xenograft; experiment: efficacy in lung tumor xenograft nude mouse model; type: in vivo, nude mice (human lung carcinoma xenografts); conditions: I.P. day 1, 3 and 7; taxol 18.0 mg/kg in Cremaphor/D5W; 2 at 23.9 mg/kg
Protocol: The tumor model was generated from an ATCC A549 non-small cell lung adenocarcinoma cell line that was maintained under the standard cell proliferation conditions (37° C., 5% carbon dioxide in sterile air). Hemocytometer counted cells suspended in Hanks medium (Gibco, Grand Island N.Y.) were implanted S.C.

human leukemia [4] = system: human leukemia
Protocol: as §4

[5] = stability measurements by HPLC (solid state and aqueous media); type: physicochemical; conditions: for stability duration: pH 6.0 to 7.3, 25° C.
Protocol: (§3) Due to a difference in retention time using our standard HPLC conditions (see FIG. 1) and differing ultraviolet absorption maxima (1280 /1254 =1.6 for 2 and 0.3 for 1), the stability of 2 was easily assayed by HPLC (FIG. 1). […] In phosphate buffered saline (PBS) or ammonium acetate--phosphate buffer systems of pH 6.0 to 7.3, 2 is stable at 25° C. for over 21 days. Taxol-2'-MPT (2) is, however, unstable in 5% HCl (pH 1.1) and brine.
as §1

[6] = taxol release / breakdown of taxol-2'-MPT in plasma; type: in vitro ADME, human
Protocol: as §3, §1

[7] = self-assembly: optical density at 340 nm and transmission electron microscopy; type: physicochemical
Excerpt: Transmission electron microscopy (TEM) confirmed the presence of supramolecular structures in these solutions. […] It is likely that the long term stability of these solutions is due, at least in part, to stabilization provided by this structured environment.

serum albumen = experiment: displacement of MPT group by serum albumen; type: in vitro ADME
Excerpt: as §2

cervical carcinoma [8] = system: cervical carcinoma
[9] = Protocol: The solubility and partition coefficient data for 2 and taxol were determined using an HPLC method.
Solubility was found by forming a solution in water with the aid of sonication for five minutes, centrifugation of the samples, and injection of the supernatant. The values reported were normalized using calibration curves constructed for both compounds by preparing known concentrations in the range 1×10^-6 to 1×10^-3 M in methylene chloride and subjecting to HPLC analysis under the same conditions. […] Partition coefficients were determined by dissolving the compound in the organic phase, shaking the resulting solution with water for ten minutes, and analyzing each phase by HPLC as above.

serum protein = experiment: displacement of MPT group by serum protein, dialysis of protein:taxol intermediate; type: in vitro ADME; conditions: contacted with serum protein
non-serum proteins = experiment: displacement of MPT group by non-serum proteins; type: in vitro ADME; conditions: tested non-serum proteins
Excerpt: as §2

tubulin = experiment: microtubule (tubulin) polymerization-depolymerization measurements; type: biochemical; conditions: for suppression of calcium chloride promoted depolymerization: 10^-6 M drug, 0.25 mM CaCl2, OD 340 nm; for suppression of calcium chloride promoted depolymerization / microtubule polymerization-depolymerization: tubulin 1.0 mg/mL; for microtubule polymerization-depolymerization: 10^-6 drug, 1.0 mM GTP, 0.25 mM CaCl2, 37° C.
Protocol: Tubulin polymerization-depolymerization measurements are illustrate in FIG. 3. Negative controls are shown with triangles; positive taxol controls are shown with diamonds; and taxol-2'-MPT, i.e., compound 2 is shown with dots.
More particularly, measurement were performed in 96 well plates at 37° C. following the protocol of R. Merlock and W. Wrasidlo (Analytical Biochemistry 1993, in press). Calcium chloride addition is indicated by the arrow. In each case, 1.0 mM GTP was used to promote the initial polymerization of tubulin. Negative control employed tubulin (1.0 mg/mL) alone, CaCl2 (0.25 mM) added after 20 minutes. Positive taxol control employed tubulin (1.0 mg/mL) with taxol (10^-6 M) and CaCl2 (0.25 mM) added after 20 minutes. The experimental taxol-2'-MPTemployed tubulin (1.0 mg/mL) with taxol-2'-MPT (10^-6) and CaCl2 (0.25 mM) added after 20 minutes. Turbidity was measured as optical density at 340 nm using a microplate reader (Molecular Devices Thermomax).

cervical carcinoma [10] = experiment: cytotoxicity (XTT), cervical carcinoma
Protocol: as §4

metastatic melanoma [11] = experiment: cytotoxicity (XTT), metastatic melanoma
Protocol: as §4

human leukemia [12] = experiment: cytotoxicity (XTT), human leukemia
Protocol: as §4

[13] = formulated in Cremaphor (polyoxyethylated castor oil) and ethanol; cited from earlier work
[14] = background statement; cited from earlier work

SMILES: CC(=O)O[C@H]1C(=O)[C@@]2(C)[C@H]([C@H](OC(=O)c3ccccc3)[C@]3(O)C[C@H](OC(=O)[C@H](Oc4cccc[n+]4C)[C@@H](NC(=O)c4ccccc4)c4ccccc4)C(C)=C1C3(C)C)[C@]1(OC(C)=O)CO[C@@H]1C[C@@H]2O [taxol-2'-MPT, Taxol-2'-MPT (methylpyridinium tosylate)]
- taxol release ([1]; 5% dextrose): no taxol release is observed
- stability in water and aqueous buffer solutions [1]: stable in water and aqueous buffer solutions
- taxol release ([1]; pH 6.2 phosphate buffered saline): no taxol release is observed
- taxol release ([1]; sterile water): no taxol release is observed
- cytotoxicity level (metastatic melanoma [2]): Extremely high
- effectiveness in displacing the MPT group (immunoglobulins): particularly effective
- control of tumor growth compared with taxol [3]: at least comparable to that of taxol
- cytotoxicity level (human leukemia [4]): Extremely high
- stability ([5]; 5% HCl (pH 1.1)): unstable
- stability duration ([5]; ammonium acetate--phosphate buffer systems): over 21 days
- stability ([5]; aqueous media at physiological pH and ion strength): essentially completely stable
- stability ([5]; brine): unstable
- stability, onset of slow degradation ([5]; in 1.5% saline): > 4 days
- stability, onset of slow degradation ([5]; in 5% dextrose): > 4 days
- stability, onset of slow degradation ([5]; in water): > 4 days
- stability duration ([5]; phosphate buffered saline (PBS)): over 21 days
- breakdown in human plasma ([6]; incubated at 37° C. with human plasma): breaks down rapidly
- time to complete conversion of 2 into taxol ([6]; plasma, methylene chloride extraction, 25° C.): ≤ 10 min
- taxol discharge in sera ([6]; sera): rapidly discharges taxol in sera
- critical concentration for exponential increase in optical density (critical aggregation concentration) ([7]; OD 340 nm, buffered solutions): 400 µM
- diameter of fibrillar aggregates ([7]; TEM, fibrillar structure): ca. 80 Å
- helical twist of fibrillar aggregates ([7]; TEM, fibrillar structure): about 7
- length of fibrillar aggregates ([7]; TEM, fibrillar structure): up to 800 Å
- diameter of spherical structures ([7]; TEM, freshly sonicated solutions): about 50 Å
- concentration above which haze and diffuse light scattering appear ([7]; buffered solutions): greater than 1×10^-3 M
- appearance of water solutions ([7]; water, all concentrations examined): optically clear
- effectiveness in displacing the MPT group (serum albumen): particularly effective
- cytotoxicity level (cervical carcinoma [8]): Extremely high
- solubility in water compared with taxol [9]: significantly more soluble in water than the parent taxol
- reaction with serum protein (serum protein): observed to displace its MPT group and form a protein:taxol intermediate
- activity in displacing the MPT group (non-serum proteins): seemed to lack this activity
- suppression of calcium chloride promoted depolymerization (tubulin): not by taxol-2'-MPT
- microtubule polymerization-depolymerization (tubulin; listed as 2): does not affect the tubulin-microtubule equilibria
- microtubule polymerization-depolymerization (tubulin; listed as taxol-2'-MPT (2)): very similar to GTP-saline controls and drastically different from taxol
- binding to tubulin in the manner of taxol (tubulin; buffered aqueous environment): does not appear to bind to tubulin in the manner of taxol

SMILES: CC(=O)O[C@H]1C(=O)[C@@]2(C)[C@H]([C@H](OC(=O)c3ccccc3)[C@]3(O)C[C@H](OC(=O)[C@H](O)[C@@H](NC(=O)c4ccccc4)c4ccccc4)C(C)=C1C3(C)C)[C@]1(OC(C)=O)CO[C@@H]1C[C@@H]2O [taxol]
- cytotoxicity level (cervical carcinoma [10]): Extremely high
- cytotoxicity level (metastatic melanoma [11]): Extremely high
- Partition Coefficient [octanol]/[water] [9]: > 10000
- Solubility in Water ([9]; water): < 1.5 µM
- cytotoxicity level (human leukemia [12]): Extremely high
- side effects of formulation [13]: hypersensitivity reactions
- water solubility [14]: less than 1.5×10^-6 M
- suppression of calcium chloride promoted depolymerization (tubulin): suppressed by taxol
- microtubule stabilization by taxol recovered from plasma treated with 2 (tubulin; taxol recovered from human plasma treated with 2): exhibited the expected microtubule stabilization
